Measurements: ChEMBL document CHEMBL5390243, “Catecholamine Derivatives: Natural Occurrence, Structural Diversity, and Biological Activity” (J Nat Prod, 2023)
In brackets after ≈: the same amount, converted by molar mass. Blank lines part the entries; values can stand above or below the compound they belong to.

Assays:
[1] = system: MCF7; assay: Cytotoxicity against human MCF7 cells assessed as reduction in cell viability measured after 24 hrs by MTT assay; type: functional, cell-based; settings: MCF7, 24 h
[2] = molecular target: Glycogen synthase kinase-3 beta (Homo sapiens, UniProt P49841); assay: Inhibition of N-terminal His6-tagged human recombinant GSK3beta expressed in baculovirus-infected Sf21 cells incubated for 60 mins in presence of ATP by ADP-glo analysis
Sequence of Glycogen synthase kinase-3 beta (P49841 whole entry): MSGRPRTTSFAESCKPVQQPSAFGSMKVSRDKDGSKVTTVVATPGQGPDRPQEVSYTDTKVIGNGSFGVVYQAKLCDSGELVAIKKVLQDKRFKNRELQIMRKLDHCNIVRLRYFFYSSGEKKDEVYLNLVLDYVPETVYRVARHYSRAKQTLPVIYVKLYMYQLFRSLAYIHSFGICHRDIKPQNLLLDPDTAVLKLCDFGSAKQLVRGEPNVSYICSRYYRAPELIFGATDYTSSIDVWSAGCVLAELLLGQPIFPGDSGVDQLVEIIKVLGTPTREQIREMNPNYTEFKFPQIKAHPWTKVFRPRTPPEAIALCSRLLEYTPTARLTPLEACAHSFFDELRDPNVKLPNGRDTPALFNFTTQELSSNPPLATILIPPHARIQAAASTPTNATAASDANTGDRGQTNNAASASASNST

[3] = molecular target: Cyclin-dependent kinase 5/CDK5 activator 1 (Homo sapiens, UniProt Q00535); assay: Inhibition of N-terminal full length human recombinant CDK5/p25 expressed in baculovirus-infected Sf21 cells incubated for 60 mins in presence of ATP by kinase-glo luminescent assay
Sequence of Cyclin-dependent kinase 5/CDK5 activator 1 (Q00535 whole entry, the tested form may be a part, canonical isoform): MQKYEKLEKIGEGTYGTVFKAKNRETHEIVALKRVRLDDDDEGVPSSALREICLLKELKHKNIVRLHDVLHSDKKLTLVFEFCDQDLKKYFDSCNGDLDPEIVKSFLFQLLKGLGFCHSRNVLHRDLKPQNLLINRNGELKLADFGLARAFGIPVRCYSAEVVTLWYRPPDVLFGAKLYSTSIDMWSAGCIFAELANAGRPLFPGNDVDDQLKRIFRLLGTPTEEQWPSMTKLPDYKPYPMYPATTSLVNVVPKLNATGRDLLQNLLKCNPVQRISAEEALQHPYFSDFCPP
Sequence of Cyclin-dependent kinase 5/CDK5 activator 1 (Q15078 whole entry, further chain, the tested form may be a part, canonical isoform): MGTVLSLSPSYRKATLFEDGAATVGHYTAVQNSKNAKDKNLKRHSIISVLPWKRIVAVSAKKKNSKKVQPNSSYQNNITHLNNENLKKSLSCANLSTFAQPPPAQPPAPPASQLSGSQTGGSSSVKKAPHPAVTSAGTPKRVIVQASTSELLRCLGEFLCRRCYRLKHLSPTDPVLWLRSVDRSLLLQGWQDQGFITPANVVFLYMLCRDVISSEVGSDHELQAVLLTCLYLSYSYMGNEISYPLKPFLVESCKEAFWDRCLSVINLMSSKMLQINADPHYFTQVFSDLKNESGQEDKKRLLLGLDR

[4] = molecular target: Casein kinase I isoform delta (Homo sapiens, UniProt P48730); assay: Inhibition of N-terminal GST-tagged human recombinant CK1delta (1 to 294 residues) expressed in Escherichia coli incubated for 60 mins in presence of ATP by Kinase-glo luminescent assay
Sequence of Casein kinase I isoform delta (P48730 whole entry, the tested form may be a part, canonical isoform): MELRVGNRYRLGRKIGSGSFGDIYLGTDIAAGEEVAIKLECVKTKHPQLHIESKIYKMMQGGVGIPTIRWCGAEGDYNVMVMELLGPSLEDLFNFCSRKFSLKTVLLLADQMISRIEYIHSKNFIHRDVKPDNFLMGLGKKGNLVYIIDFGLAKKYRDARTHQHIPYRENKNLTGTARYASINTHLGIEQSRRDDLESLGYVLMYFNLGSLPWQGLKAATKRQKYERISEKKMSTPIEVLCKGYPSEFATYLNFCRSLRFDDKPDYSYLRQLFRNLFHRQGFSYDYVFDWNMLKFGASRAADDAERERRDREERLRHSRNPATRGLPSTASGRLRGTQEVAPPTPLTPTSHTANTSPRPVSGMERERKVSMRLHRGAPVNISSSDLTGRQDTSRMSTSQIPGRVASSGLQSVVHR

[5] = molecular target: T1, Acetylcholinesterase (Homo sapiens, UniProt P22303); assay: Inhibition of Acetylcholinesterase (unknown origin) using acetylthiocholine iodide as substrate incubated for 20 mins by Ellaman's method
T1 sequence (P22303 whole entry): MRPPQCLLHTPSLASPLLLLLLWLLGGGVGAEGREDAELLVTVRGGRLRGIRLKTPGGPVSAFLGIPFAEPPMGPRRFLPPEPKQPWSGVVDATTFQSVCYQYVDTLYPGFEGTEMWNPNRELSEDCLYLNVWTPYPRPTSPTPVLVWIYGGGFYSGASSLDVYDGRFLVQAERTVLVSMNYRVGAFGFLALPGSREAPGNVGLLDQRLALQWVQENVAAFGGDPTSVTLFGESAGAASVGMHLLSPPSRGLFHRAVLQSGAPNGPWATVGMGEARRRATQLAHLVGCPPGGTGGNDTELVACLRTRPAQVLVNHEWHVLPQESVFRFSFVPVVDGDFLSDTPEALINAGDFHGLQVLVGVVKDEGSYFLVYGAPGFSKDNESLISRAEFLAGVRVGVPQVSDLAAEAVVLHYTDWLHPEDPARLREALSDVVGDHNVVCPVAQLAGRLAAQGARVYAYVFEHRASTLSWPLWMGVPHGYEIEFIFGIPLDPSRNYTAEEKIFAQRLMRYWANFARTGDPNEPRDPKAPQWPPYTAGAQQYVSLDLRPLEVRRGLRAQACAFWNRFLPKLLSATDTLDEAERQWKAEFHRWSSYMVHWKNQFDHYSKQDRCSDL

[6] = molecular target: Beta-1 adrenergic receptor (Homo sapiens) (UniProt P08588); assay: Agonist activity at ARbeta1 (unknown origin) expressed in CHO-K1 cells co-expressing G alpha 15 assessed as inhibition of isoproterenol induced calcium response upto 100 uM incubated for 10 mins by calcium mobilization assay relative to control; type: functional, cell-based; set-up: Activity: scale not given: the % may be the effect or the level left
Sequence of Beta-1 adrenergic receptor (Homo sapiens) (P08588 whole entry, looked up): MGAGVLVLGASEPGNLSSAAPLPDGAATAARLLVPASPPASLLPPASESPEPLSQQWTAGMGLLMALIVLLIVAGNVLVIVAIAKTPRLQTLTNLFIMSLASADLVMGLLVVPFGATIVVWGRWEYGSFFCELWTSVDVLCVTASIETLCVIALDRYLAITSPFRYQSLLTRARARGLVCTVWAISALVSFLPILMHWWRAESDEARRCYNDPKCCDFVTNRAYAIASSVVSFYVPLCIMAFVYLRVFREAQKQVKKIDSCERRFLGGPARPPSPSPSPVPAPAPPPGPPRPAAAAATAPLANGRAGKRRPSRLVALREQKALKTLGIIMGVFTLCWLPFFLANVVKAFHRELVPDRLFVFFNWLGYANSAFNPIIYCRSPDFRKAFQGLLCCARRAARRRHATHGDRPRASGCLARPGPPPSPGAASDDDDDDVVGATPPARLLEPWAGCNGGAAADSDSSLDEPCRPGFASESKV

[7] = Antioxidant activity assessed as DPPH radical scavenging activity; type: functional
[8] = molecular target: T1, Acetylcholinesterase; assay: Inhibition of human AchE using acetylthiocholine iodide as substrate incubated for 20 mins by Ellman's assay; settings: read-out: EC50 (the source's name)
[9] = system: RAW264.7; assay: Anti-inflammatory activity against mouse RAW264.7 cells assessed as inhibition of LPS-induced nitric oxide production at 50 uM preincubated for 2 hrs with compound followed by LPS-stimulation and measured after 24 hrs by Griess reagent based analysis; type: functional, cell-based
[10] = Metal chelating activity assessed as iron chelation by CAS assay
[11] = system: SGC-7901; assay: Cytotoxicity against human SGC-7901 cells assessed as reduction in cell viability measured after 72 hrs by MTT assay; type: functional, cell-based; settings: SGC-7901, 72 h
[12] = Antioxidant activity assessed as DPPH radical scavenging activity measured after 30 mins by UV-visible spectrophotometric analysis; type: functional
[13] = Antioxidant activity assessed as ABTS radical scavenging activity incubated for 30 mins by UV-visible spectrphotometric analysis; type: functional
[14] = system: RAW264.7; assay: Anti-inflammatory activity against mouse RAW264.7 cells assessed as inhibition of LPS-induced NO production at 100 ng/ml pretreated with compound for 2 hrs followed by LPS stimulation and measured after 24 hrs by Griess reagent based analysis; type: functional; set-up: scale not given: the % may be the effect or the level left; settings: time 26 hrs
[15] = system: RAW264.7; assay: Antiinflammatory activity against LPS-induced mouse RAW264.7 cells assessed as reduction in IL-6 mRNA expression at 10 uM by RT-PCR analysis; type: functional; set-up: scale not given: the % may be the effect or the level left
[16] = Antioxidant activity assessed as DPPH radical scavenging activity incubated for 20 mins by spectrophotometric method; type: functional

SMILES: COCc1ccc(C=O)n1CCc1ccc(O)c(O)c1
IC50 [1]: 11.6 µM

IC50 [2]: < 0.2 µM
IC50 [3]: < 1.5 µM
IC50 [4]: < 0.2 µM
SMILES: O=C1C(c2ccc(O)c(O)c2)=C2C(=C(c3ccc(O)c(O)c3)C(=O)N2CCc2ccc(O)c(O)c2)c2cc(O)c(O)cc21

IC50 [2]: 0.8 µM
IC50 [3]: 2.6 µM
IC50 [4]: 1.5 µM
SMILES: O=c1oc2cc(O)c(O)cc2c2c(-c3ccc(O)c(O)c3)cn(CCc3ccc(O)c(O)c3)c12

SMILES: COc1cc(O)c2c(c1)C(=O)c1cc(O)c(O)cc1CCN2
IC50 [5]: 46 µM

SMILES: O=C1c2c(ccc(O)c2O)CCn2cccc21
IC50 [5]: 50.5 µM

Activity [6]: 24.2%
SMILES: Oc1cc2c(cc1O)CCN=C2

SMILES: O=C(/C=C/c1ccc(O)cc1)n1ccc2cc(O)c(O)cc21
EC50 [7]: 16.2 µM
IC50 [8]: 55.1 µM

SMILES: O=C1CCc2cc(O)c(O)cc2N1
IC50 [1]: 20.5 µM

IC50 [9]: 53.1 µM
SMILES: O=C(O)[C@@H]1Cc2cc(O)c(O[C@@H]3O[C@H](CO[C@@H]4O[C@H](CO)[C@@H](O)[C@H](O)[C@H]4O)[C@@H](O)[C@H](O)[C@H]3O)cc2N1C(=O)/C=C/c1ccc(O[C@@H]2O[C@H](CO)[C@@H](O)[C@H](O)[C@H]2O)cc1

EC50 [10]: 38.4 µM
SMILES: NC[C@H](CCCCNC(=O)c1cccc(O)c1O)N1C(=O)c2c(ccc(O)c2O)[C@@H](c2ccc(O)cc2)[C@]1(O)C(=O)O

Activity [6]: 15.9%
SMILES: CC1=NCCc2cc(O)c(O)cc21

SMILES: CC(=O)O[C@H]1C(=O)[C@@]2(C)[C@H]([C@H](OC(=O)c3ccccc3)[C@]3(O)C[C@H](OC(=O)[C@H](O)[C@@H](NC(=O)c4ccccc4)c4ccccc4)C(C)=C1C3(C)C)[C@]1(OC(C)=O)CO[C@@H]1C[C@@H]2O [PACLITAXEL]
IC50 [11]: 0.15 µM

EC50 [12]: 9.72 µg/mL (≈ 55.2 µM)
EC50 [13]: 4.89 µg/mL (≈ 27.8 µM)
SMILES: O=C1O[C@H]([C@@H](O)CO)C(O)=C1O [ASCORBIC ACID]

IC50 [2]: < 0.5 µM
IC50 [3]: < 2.4 µM
IC50 [4]: < 1.4 µM
SMILES: O=C1C(c2ccc(O)c(O)c2)=c2c(c3c(n2CCc2ccc(O)c(O)c2)=C(c2ccc(O)c(O)c2)C(=O)c2c-3ccc(O)c2O)-c2cc(O)c(O)cc21

SMILES: O=C(/C=C/c1ccc(O)c(O)c1)n1ccc2cc(O)c(O)cc21
IC50 [8]: 44.8 µM

SMILES: COc1cc(/C=C/C(=O)OC[C@H]2O[C@@H](O[C@H]3[C@H](O)[C@@H](OC(=O)/C=C/c4ccc(O)c(O)c4)[C@H](OC[C@H]4O[C@@H](Oc5cc6c(cc5O)C[C@@H](C(=O)O)N6C(=O)/C=C/c5ccc(O)cc5)[C@H](O)[C@@H](O)[C@@H]4O)O[C@@H]3CO)[C@H](O)[C@@H](O)[C@@H]2O)ccc1O
Activity [14]: 34.7%
Activity [15]: 81%

IC50 [2]: < 0.2 µM
IC50 [3]: < 0.5 µM
IC50 [4]: < 0.3 µM
SMILES: O=C1C(c2ccc(O)c(O)c2)=c2c(c3c(n2CCc2ccc(O)c(O)c2)=C(c2ccc(O)c(O)c2)C(=O)c2cc(O)c(O)cc2-3)-c2cc(O)c(O)cc21

EC50 [16]: 37.7 µM
SMILES: COC(=O)[C@@H]1Cc2cc(O)c(O[C@@H]3O[C@H](CO)[C@@H](O)[C@H](O)[C@H]3O)cc2N1C(=O)/C=C/c1ccc(O)cc1

EC50 [16]: 21 µM
SMILES: COC(=O)[C@@H]1Cc2cc(O)c(O[C@@H]3O[C@H](CO)[C@@H](O)[C@H](O)[C@H]3O)cc2N1C(=O)/C=C/c1ccc(O)c(OC)c1

EC50 [10]: 4.6 µM
SMILES: NC[C@H](CCCCNC(=O)c1cccc(O)c1O)NC(=O)c1cccc(O)c1O

SMILES: O=C(/C=C/c1ccc(O)c(O)c1)OC[C@H]1O[C@@H](O[C@H]2[C@H](O)[C@@H](OC(=O)/C=C/c3ccc(O)c(O)c3)[C@H](OC[C@H]3O[C@@H](Oc4cc5c(cc4O)C[C@@H](C(=O)O)N5C(=O)/C=C/c4ccc(O)cc4)[C@H](O)[C@@H](O)[C@@H]3O)O[C@@H]2CO)[C@H](O)[C@@H](O)[C@@H]1O
Activity [14]: 38.8%
Activity [15]: 74.2%

SMILES: N[C@@H](CO)C(=O)O [SERINE]
IC50 [5]: 38.3 µM
